Test results reported in patent publication US10882838B2, “Cannabinergic compounds and uses thereof” (Northeastern University, priority 2012, dated 2021).

Legend:
[1] = Stability in plasma (half-life); assay type: in vitro ADME, rat or monkey; conditions: method: 200 μM in plasma, 37°; species of plasma not given
Description: The designed compounds carry a side chain that is susceptible to plasma esterase activity, inviting their rapid deactivation. Thus, it is important to characterize the rate of compound metabolism in isolated rat or monkey plasma. As a preliminary predictor of oral stability, this assay will also be done in buffers at pH 2 (to emulate the stomach) and pH 7.4 (physiological pH). Compounds (10 mM in DMSO) are diluted in plasma, acetonitrile or buffer to a concentration of 200 μM and incubated in a 37° shaking water bath for 2 hours. Samples are taken periodically, diluted 1:4 with acetonitrile and centrifuged to precipitate protein. The resulting supernatant is analyzed by HPLC to predict expected in vivo plasma half-lives.

mCB2 receptor = mCB2 receptor (Mus musculus (Mouse), UniProt P47936); assay: mCB2 competition-equilibrium binding with [3H]CP-55,940, membranes of HEK293 cells expressing mCB2; conditions: HEK293 cells expressing mCB2, [3H]CP-55,940; read-out: mCB2 Ki
Description: (§1) HEK293 cells expressing hCB1 or hCB2 or mCB2 receptor are used for membrane preparations according to Abadji et al. The resulting pellet is resuspended in 10 mM Tris-chloride, pH 7.4, with 5 mM MgCl2 and 2 mM EDTA (TME), rapidly frozen in liquid nitrogen and stored at −80° C. for no longer than two months. Protein content is assayed by using the Bio-Rad protein assay according to the manufacturer's protocol.
(§2) All the cannabinoids discussed in this invention are tested for their ability to bind to CB1 and CB2 receptors using membranes from rat brain or HEK293 cells expressing either mCB2 or hCB2, respectively via competition-equilibrium binding using [^3H]CP-55,940. Results are analyzed using nonlinear regression to determine ligand IC50 (Prism by GraphPad Software, Inc.), and Ki values are calculated from the IC50. IC50 and Ki values are determined from at least three independent experiments.

hCB2 receptor = hCB2 receptor (Homo sapiens (Human), UniProt P34972); assay: hCB2 competition-equilibrium binding with [3H]CP-55,940, membranes of HEK293 cells expressing hCB2; conditions: HEK293 cells expressing hCB2, [3H]CP-55,940; read-out: hCB2 Ki
Description: as §1, §2

CB1 receptor = CB1 receptor (Rattus norvegicus (Rat), UniProt P20272); assay: rCB1 competition-equilibrium binding with [3H]CP-55,940, rat brain membranes; conditions: rat brain membranes, [3H]CP-55,940; read-out: rCB1 Ki
Description: Frozen rat brains (CB1 source) are obtained from Pel-Freeze Biologicals (Rogers, Ak.) and stored at −80° C. until use. Membranes are prepared according to the method described by Dodd et al. and used in our laboratory as reported.
as §2

[2] = background statement; cited from earlier work
[3] = background statement; cited from earlier work; remark: listed apart in the source
[4] = background statement, up to; cited from earlier work

SMILES | half-life at 200 μM [1] | Ki (mCB2 receptor) | Ki (hCB2 receptor) | Ki (CB1 receptor) | protein binding [2] | clog P [3] | slow and erratic absorption [4]
CC1=CC[C@@H]2[C@@H](C1)c1c(O)cc(CC(=O)OCCCCBr)cc1OC2(C)C [Compound 1.27, 4-bromobutyl-2-((6aR,10aR)-6a,7,10,10a-tetrahydro-1-hydroxy-6,6,9-trimethyl-6H-benzo[c]chromen-3-yl)acetate] | 3 min | 11.6 nM | 7.1 nM | 2.2 nM | – | – | –
CC1=CC[C@@H]2[C@@H](C1)c1c(O)cc(CC(=O)OCCCCC#N)cc1OC2(C)C [Compound 1.28, 4-cyanobutyl-2-((6aR,10aR)-6a,7,10,10a-tetrahydro-1-hydroxy-6,6,9-trimethyl-6H-benzo[c]chromen-3-yl)acetate] | 4.8 min | 2.1 nM | 1.2 nM | 14.3 nM | – | – | –
CCCCOC(=O)Cc1cc(O)c2c(c1)OC(C)(C)[C@@H]1CC=C(C)C[C@@H]21 [Compound 1.29, Butyl-2-((6aR,10aR)-6a,7,10,10a-tetrahydro-1-hydroxy-6,6,9-trimethyl-6H-benzo[c]chromen-3-yl)acetate] | 5 min | 27 nM | 8.2 nM | 40.3 nM | – | – | –
COC(=O)C(C)(C)c1cc(O)c2c(c1)OC(C)(C)[C@@H]1CC=C(C)C[C@@H]21 [Compound 1.34, Methyl-2-((6aR,10aR)-6a,7,10,10a-tetrahydro-1-hydroxy-6,6,9-trimethyl-6H-benzo[c]chromen-3-yl)-2-methylpropanoate] | 60 min | 34.5 nM | 36.8 nM | 83.1 nM | – | – | –
CCCCOC(=O)C(C)(C)c1cc(O)c2c(c1)OC(C)(C)[C@@H]1CC=C(CO)C[C@@H]21 [Compound 2.2, Butyl-2-((6aR,10aR)-6a,7,10,10a-tetrahydro-1-hydroxy-9-(hydroxymethyl)-6,6-dimethyl-6H-benzo[c]chromen-3-yl)-2-methylpropanoate] | 5 min | 1.5 nM | 0.8 nM | 0.6 nM | – | – | –
CC(C)(C(=O)OCCCCn1ccnc1)c1cc(O)c2c(c1)OC(C)(C)[C@@H]1CC=C(CO)C[C@@H]21 [Compound 2.3, 4-(1H-imidazol-1-yl)-butyl-2-((6aR,10aR)-6a,7,10,10a-tetrahydro-1-hydroxy-9-(hydroxymethyl)-6,6-dimethyl-6H-benzo[c]chromen-3-yl)-2-methylpropanoate] | 120 min | 11.6 nM | 8.7 nM | 25.3 nM | – | – | –
CCCCOC(=O)C(C)(C)c1cc(O)c2c(c1)OC(C)(C)[C@@H]1CC[C@@H](O)C[C@@H]21 [Compound 3.6, Butyl-2-((6aR,9R,10aR)-6a,7,8,9,10,10a-hexahydro-1,9-dihydroxy-6,6-dimethyl-6H-benzo[c]chromen-3-yl)-2-methylpropanoate] | 3 min | 0.2 nM | 0.2 nM | 0.1 nM | – | – | –
CCCCOC(=O)C(C)(C)c1cc(O)c2c(c1)OC(C)(C)[C@@H]1CC[C@H](O)C[C@@H]21 [Compound 3.8, Butyl-2-((6aR,9S,10aR)-6a,7,8,9,10,10a-hexahydro-1,9-dihydroxy-6,6-dimethyl-6H-benzo[c]chromen-3-yl)-2-methylpropanoate] | 8 min | 6.6 nM | 4.5 nM | 3.1 nM | – | – | –
CCCCCc1cc(O)c2c(c1)OC(C)(C)[C@@H]1CCC(C)=C[C@@H]21 [Dronabinol] | – | – | – | – | ≥ 97% | > 7 | 2 to 6 h
CCCCCCC(C)(C)c1cc(O)c2c(c1)OC(C)(C)C1CCC(=O)CC21 (stereo not shown) [Nabilone] | – | – | – | – | ≥ 97% | > 7 | –
